How the values were obtained:
[1] = system: N terminus truncated GHRHRs; experiment: β-arrestin 1/2 recruitment (BRET), truncated receptors; format: cell-based, human; conditions: HEK293T
Description: HEK293T cells were seeded at a density of 30,000 cells per well into 96-well culture plates pretreated with poly-D-lysine hydrobromide. After incubation for 24 h to reach 70% to 80% confluence, the cells were transiently transfected with HA-Flag-GHRHR-Rluc8 or HA-Flag-SV1-Rluc8 and β-arrestin 1/2-Venus at a 1:9 mass ratio using lipofectamine 3000 reagent (Invitrogen) and cultured for another 24 h. Thereafter, cells were washed once and incubated for 30 min at 37 °C with HBSS buffer (pH 7.4) supplemented with 0.1% BSA and 10 mM HEPES. Five micromolars of coelenterazine h (YEASEN Biotechnology) was then added and incubated for 5 min in the dark. The bioluminescence resonance energy transfer (BRET) signals were detected with an Envision plate reader by calculating the ratio of emission at 535 nm over emission at 470 nm.

[2] = target: T1, SV1 (Homo sapiens, UniProt Q02643); experiment: cAMP accumulation; format: cell-based; conditions: mean ± SEM; for Emax: HEK-293T, HEK293T; for ΔLog (τ/KA): operational model, τ corrected by cell surface expression
T1 sequence (Q02643 90-423 limits assumed): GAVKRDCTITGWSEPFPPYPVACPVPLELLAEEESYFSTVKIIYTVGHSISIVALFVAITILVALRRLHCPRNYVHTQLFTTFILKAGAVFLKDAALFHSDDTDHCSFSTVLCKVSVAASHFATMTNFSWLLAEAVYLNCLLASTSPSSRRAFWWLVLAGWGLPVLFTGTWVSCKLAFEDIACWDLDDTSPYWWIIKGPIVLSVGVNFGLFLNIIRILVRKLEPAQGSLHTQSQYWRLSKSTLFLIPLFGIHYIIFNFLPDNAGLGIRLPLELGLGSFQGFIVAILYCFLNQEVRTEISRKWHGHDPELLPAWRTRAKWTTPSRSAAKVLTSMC
Description: (§1) GHRH-stimulated cAMP accumulation was measured by a LANCE Ultra cAMP kit (PerkinElmer). Briefly, HEK293T cells (24 h after transfection with SV1 or GHRHR) or prostate cancer cells were digested by 0.2% (wt/vol) EDTA and washed once with Dulbecco’s phosphate-buffered saline (PBS). Cells were then resuspended with stimulation buffer (Hanks’ balanced salt solution [HBSS] supplemented with 5 mM HEPES, 0.5 mM IBMX, and 0.1% [wt/vol] bovine serum albumin [BSA], pH 7.4) to a density of 0.6 million cells per milliliter and added to 384-well white plates (3,000 cells per well). […] The reaction was stopped by adding 5 μL Eu-cAMP tracer and 5 μL ULight-anti-cAMP. After 1 h RT incubation, TR-FRET signals (excitation: 320 nm, emission: 615 and 665 nm) were measured by an Envision plate reader (PerkinElmer). cAMP concentrations were interpolated by a standard curve.
(§2) All functional study data were analyzed using Prism 7 (GraphPad) and presented as means ± SEM from at least three independent experiments. Concentration-response curves were evaluated with a three-parameter logistic equation. The significance was determined with either two-tailed Student’s t test or one-way ANOVA, and P < 0.05 is considered statistically significant.
(§3) Table S2. Effects of residue mutation or truncation in the ECD of GHRHR on GHRH-induced cAMP […]
(§4) Mutant pEC50 Emax (% WT GHRHR) expression ΔLog (τ/KA) […]
(§5) cAMP accumulation data were analyzed using a three-parameter logistic equation to determine pEC50 and Emax values. pEC50 is the negative logarithm of the molar concentration of agonist that induced half the maximal response. Emax for mutants is expressed as a percentage of the WT GHRHR. Data were analyzed by nonlinear regression using the operational model equation to determine t he logR values (logτ/KA, i.e., logarithm of the transduction ratio). τ is the effi cacy value of the agonist and was corrected by cell surface expression of the receptor. KA is dissociation constant. Changes in transduction ratio (ΔlogR) were calculated to determine the relative effectiveness of the mutants. All values are means ± S.E.M. of at le ast three ind ep en dent experiments (n = 3-5) conducted in quadruplicate. Statistical analysis was carried out by comparing the control responses in the WT GHRHR. **, P < 0.01 and ***, P < 0.001, determined by one-way […]
(§6) Table S4. Effects of residue mutation in the ligand-binding pocket of SV1 on GHRH-induced cAMP […]
(§7) Mutant pEC50 Emax Cell surface expression ΔLog (τ/KA) […]
(§8) effectiveness of the mutants. All values are means ± S.E.M. of four independent experiments (n = 4) conducted in quadruplicate. Statistical analysis was carried out by comparing the control responses in the WT-SV1. *, P < 0.05, **, P < 0.01 and ***, P < 0.001, determined by one-way

[3] = target: T2, WT GHRHR (Homo sapiens, UniProt Q02643); experiment: cAMP accumulation; format: cell-based; conditions: for Emax: HEK-293T, HEK293T; for ΔLog (τ/KA): operational model, τ corrected by cell surface expression
T2 construct: Comparison of SV1 with full-length or truncated GHRHR that lacks ECD or the first 89 residues (B); expressed in transfected cells; host or cells: HEK293T
T2 sequence (Q02643 23-423): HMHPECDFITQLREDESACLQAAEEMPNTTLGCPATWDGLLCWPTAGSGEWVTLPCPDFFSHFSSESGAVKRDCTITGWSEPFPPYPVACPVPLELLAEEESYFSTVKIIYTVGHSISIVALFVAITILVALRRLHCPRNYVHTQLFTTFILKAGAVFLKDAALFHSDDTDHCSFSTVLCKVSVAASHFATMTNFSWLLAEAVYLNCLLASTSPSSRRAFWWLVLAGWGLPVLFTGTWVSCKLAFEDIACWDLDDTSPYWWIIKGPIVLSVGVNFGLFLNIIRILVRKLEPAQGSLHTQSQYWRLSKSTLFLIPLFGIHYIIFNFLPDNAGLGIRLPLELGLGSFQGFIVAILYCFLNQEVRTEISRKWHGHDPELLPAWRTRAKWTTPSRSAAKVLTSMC
Description: as §1, §2, §3, §4, §5, §6, §7, §8

[4] = target: T3, GHRHR Δ32 (Homo sapiens, UniProt Q02643); experiment: cAMP accumulation; format: cell-based; conditions: Table S2; operational model; τ corrected by cell surface expression; relative to WT GHRHR; mean ± SEM
T3 construct: expressed in transfected cells; host or cells: HEK293T
Description: Concentration-response curves were evaluated with a three-parameter logistic equation.

[5] = Table S4, n = 4 in quadruplicate

## CC[C@H](C)[C@H](NC(=O)[C@H](C)NC(=O)[C@H](CC(=O)O)NC(=O)[C@H](C)NC(=O)[C@@H](N)Cc1ccc(O)cc1)C(=O)N[C@@H](Cc1ccccc1)C(=O)N[C@H](C(=O)N[C@@H](CC(N)=O)C(=O)N[C@@H](CO)C(=O)N[C@@H](Cc1ccc(O)cc1)C(=O)N[C@@H](CCCNC(=N)N)C(=O)N[C@@H](CCCCN)C(=O)N[C@H](C(=O)N[C@@H](CC(C)C)C(=O)NCC(=O)N[C@@H](CCC(N)=O)C(=O)N[C@@H](CC(C)C)C(=O)N[C@@H](CO)C(=O)N[C@@H](C)C(=O)N[C@@H](CCCNC(=N)N)C(=O)N[C@@H](CCCCN)C(=O)N[C@@H](CC(C)C)C(=O)N[C@@H](CC(C)C)C(=O)N[C@@H](CCC(N)=O)C(=O)N[C@@H](CC(=O)O)C(=O)N[C@H](C(=O)N[C@@H](CCSC)C(=O)N[C@@H](CO)C(=O)N[C@@H](CCCNC(=N)N)C(=O)N[C@@H](CCC(N)=O)C(=O)N[C@@H](CCC(N)=O)C(=O)NCC(=O)N[C@@H](CCC(=O)O)C(=O)N[C@@H](CO)C(=O)N[C@@H](CC(N)=O)C(=O)N[C@@H](CCC(N)=O)C(=O)N[C@@H](CCC(=O)O)C(=O)N[C@@H](CCCNC(=N)N)C(=O)NCC(=O)N[C@@H](C)C(=O)N[C@@H](CCCNC(=N)N)C(=O)N[C@@H](C)C(=O)N[C@@H](CCCNC(=N)N)C(=O)N[C@@H](CC(C)C)C(N)=O)[C@@H](C)CC)C(C)C)[C@@H](C)O [GHRH, growth hormone–releasing hormone]
[1]; deletion made before the first 82 residues, 250 μM GHRH
  β-arrestin 1/2 recruitments: not affected
[1]; truncation of the first 89 residues or the entire ECD
  β-arrestin 1/2 recruitments: enhanced
[2]; [5]
  Emax: 102 ± 2.28%
[2]; Table S2, n = 3-5 in quadruplicate
  Emax: 105 ± 2.2%
[2]; Table S2, relative to WT GHRHR
  ΔLog (τ/KA): -2.98 ± 0.04
[2]; Table S4, n = 4
  ΔLog (τ/KA): -3.93 ± 0.10
[3]; [5]
  Emax: 100%
[3]; Table S2, mean ± SEM, n = 3-5 in quadruplicate
  Emax: 100 ± 1.81%
[3]; Table S2, relative to WT GHRHR, mean ± SEM
  ΔLog (τ/KA): 0 ± 0.05
[3]; Table S4, mean ± SEM, n = 4
  ΔLog (τ/KA): 0.00 ± 0.09
[4]
  ΔLog (τ/KA): -3.23 ± 0.04
